Tests used:
[1] = after oral administration; cited from earlier work
[2] = pylorus-ligated rats, within 30 min; cited from earlier work
M. smithii = test: Lovastatin gavage in M. smithii colonized high-fat diet rats, qPCR of bowel segments; format: in vivo, Sprague-Dawley rats; conditions: 1.5 mg/rat gavaged daily for 10 days
Procedure: The rats were assessed for increased M. smithii by qPCR before and after the diet, and then divided into 3 groups. Group 1 was given lovastatin in its lactone form, Group 2 was given lovastatin hydroxy acid (each 1.5 mg/rat), and Group 3 was gavaged with a placebo. Each group was gavaged daily for 10 days. Three day stool collections were performed to assess average stool wet weight and daily variability prior to commencing the high fat diet, after 7 weeks of high-fat diet, and the final days of the lovastatin gavage (still on high-fat diet). On day 10 of the gavage, rats were euthanized and DNA was extracted from contents of ligated bowel segments (duodenum, jejunum, ileum, cecum and left colon). qPCR was performed using primers for total luminal bacteria and M. smithii.

[3] = system: human and rat fecal bacterial enzyme fractions; conditions: over a 12 h period; cited from earlier work
[4] = Binary stress testing of 1:1 lovastatin/excipient mixtures, HPLC; conditions: range of temperature and humidity conditions, 7 days
Procedure: The compatibility of lovastatin drug substance with formulation excipients was evaluated in binary stress testing studies where 1:1 mixtures of lovastatin and each excipient were stored for 7 days under different conditions of temperature and relative humidity (RH). Samples were analyzed by HPLC (based on USP methods) at day 0 and day 7.

Row | SMILES | pre-portal hydrolysis in vivo [1] [%] | fraction of an intragastric dose that exited the gastric juice [2] [%] | M. smithii levels in the colon (M. smithii) | ratio of M. smithii to total bacteria in the ileum (M. smithii; versus placebo) | loss of lovastatin lactone [3] | stability in binary stress testing [4]
1 | CC[C@H](C)C(=O)O[C@H]1C[C@@H](C)C=C2C=C[C@H](C)[C@H](CC[C@@H]3C[C@@H](O)CC(=O)O3)[C@H]21 [Lovastatin] | ~10 | ~30 | unaffected | reduced | 8-19% | stable
2 | CC[C@H](C)C(=O)O[C@H]1C[C@@H](C)C=C2C=C[C@H](C)[C@H](CC[C@@H](O)C[C@@H](O)CC(=O)O)[C@H]21 [lovastatin β-hydroxyacid] | – | ~30 | unaffected | – | – | –

— US10668159B2, “Anti-methanogenic compositions and uses thereof” (Cedars-Sinai Medical Center, priority 2014, dated 2020)
